No end group written: not given here. Where only a bound is given, the exact number is not on record here.

The test system of data set [1] is MEC-1 chronic lymphocytic leukaemia cell line. In words: MTT cytotoxicity assay. Conditions: for IC50 MEC-1 cells: tested range 5 to 50 µM. Also noted: Cytotoxicity MEC-1 (qualitative score): key to the marks not given beside the values. The data set is classed as cell-based, human. The protocol: Cytotoxicity was also assessed on a human lymphocytic cell line by using the 3-(4,5-dimethylthiazol-2-yl)-2,5-diphenyl tetrazolium bromide (MTT) assay. The MEC-1 chronic lymphocytic leukaemia cell line was kindly provided by Prof. P. Macor (Department of Life Sciences, University of Trieste, IT). MEC-1 cells were cultured in RPMI 1640 complete medium supplemented with 2 mM L-glutamine, 100 U/mL penicillin, 100 µg/mL streptomycin and 10% foetal bovine serum (FBS) and were subcultured two/three times a week for not more than 20 passages. The colorimetric MTT assay was performed to assess the metabolic activity of cells plated onto 96-well culture plates (10^5 cells/well, V^f = 100 µL) that had been exposed to 5 to 50 µM kiadins for 24 h. Twenty microlitres of a stock MTT solution (5 mg/mL) were added to each well after 20 h and left to incubate for the remaining 4 h. The converted MTT dye was then solubilized with acidic isopropanol (0.04 N HCl in absolute isopropanol). Absorbance was measured at 540 and 630 nm using an automated microplate reader (EL311, BIO-TEK® Instruments, Charlotte, VT, USA). All measurements were carried out at least in triplicate. An IC50 value was estimated as the concentration of peptide causing a 50% decrease in viability, calculated using GraphPad Prism software.

The subject of data set [2] is human red blood cells (RBC). As to conditions: cited from earlier work; for HC50 (haemolytic activity, text): 0.5% human erythrocytes in PBS.
For data set [3], the system named is Escherichia coli ATCC 25922. More on the design: method as in PMID 29553266. Conditions: cited from earlier work; for E. coli MIC: microdilution, Mueller–Hinton broth, 5 × 10^5 CFU/mL, overnight 37 °C, no visual growth; for E. coli MBC: no visible growth on MH agar after 18 h at 37 °C of aliquots from MIC, 2 × MIC, 4 × MIC wells.
Data set [4] deals with Staphylococcus aureus ATCC 25923. More on the design: method as in PMID 29553266. Conditions: cited from earlier work; for S. aureus MIC: microdilution, Mueller–Hinton broth, 5 × 10^5 CFU/mL, overnight 37 °C, no visual growth; for S. aureus MBC: no visible growth on MH agar after 18 h at 37 °C of aliquots from MIC, 2 × MIC, 4 × MIC wells.
Data set [5] deals with human red blood cells (RBC). In words: Haemolytic activity assay. The format is cell-based. More on the design: key to the marks not given beside the values. The protocol:
Haemolytic activity was previously reported by Roncevic et al. and was evaluated by incubating 0.5% erythrocytes provided by an informed healthy donor with serially diluted peptides in 96-well microtiter plates. Haemoglobin release was monitored at 450 nm. Triton-X was used as a positive control, and the incubation of red blood cells in PBS without peptides was the negative control. A HC50 value was calculated as the concentration causing 50% haemolysis.

Data set [6] is described as follows: Surface plasmon resonance binding to immobilized liposomes. As to conditions: SPR, L1 chip with DOPC LUVs, PBS, 0.5 to 16 μM peptide, affinity-steady state model; estimated; repeated three times; read-out: KD (equilibrium dissociation constant). The protocol: Large unilamellar vesicles (LUVs) were prepared as described by Morgera et al.. Briefly, dry 1,2-dioleoyl-sn-glycero-3-phosphocholine (DOPC) or phosphatidylglycerol:diphosphatidylglycerol (DPPG) was dissolved in chloroform/methanol (2:1) solution, then evaporated using a dry nitrogen stream and vacuum-dried for 24 h. The liposome cake was resuspended in 1 mL of sodium phosphate buffer (SPB) to a concentration of 5 mM phospholipid and spun for 1 h at 40 °C. The vesicles were then subjected to several freeze–thaw cycles before passing through a mini-extruder (Avanti Polar Lipids, Alabaster, AL, USA) with successive polycarbonate filters having 1, 0.4 and 0.1 μm pores before resuspending to a final phospholipid concentration of 0.4 mM. By calculating the surface area of a ∼100 nm liposome and taking into account the average area of a phospholipid headgroup (∼0.7 nm^2) (similar to the value determined in MD simulations), the concentration of the liposomes was estimated to be about 5 nM.
Peptide–membrane interactions were studied using an X-100 instrument (Biacore, GE Lifesciences). LUVs were prepared using DOPC as described above. The extruded unilamellar LUVs were then diluted to result in ~1 mM phospholipid in PBS. The L1 sensor chip was preconditioned and loaded with the LUVs, as described previously. […]

As to H-KIAKGALKALKIAKGALKAL-NH2 [kiadin-3], the “MEC-1 IC50 (concentration causing 50% decrease in viability)” value in data set [1] (MTT, 10^5 cells/well, 5 to 50 µM peptide, 24 h, RPMI 1640 with 10% FBS, at least triplicate) is more than 50 µM. The “IC50 MEC-1 cells” value in data set [1] (MTT, 24 h) is more than 50 µM. Moreover, the “HC50 (haemolytic activity, text)” value in data set [2] is reported as “about 95 μM”. Further, in data set [3], the “E. coli MIC” value is recorded as 4 mM and the “E. coli MBC” value is reported as 16 mM. Further, in data set [4], the “S. aureus MIC” value was 16 to 32 mM and the “S. aureus MBC” value is reported as 32 mM.
On to H-KIAKVALKALKIAKGALKAL-NH2 [kiadin-1], for which the “Cytotoxicity MEC-1 (qualitative score)” value in data set [1] is “+++”. In data set [3], the “E. coli MIC” value is 0.75 mM and the “E. coli MBC” value is 0.75 mM. The “Cytotoxicity RBC (qualitative score)” value in data set [5] is on record as “+++”. In data set [4], the “S. aureus MIC” value was 0.5 to 1 mM and the “S. aureus MBC” value is 1.5 mM.
As to H-KIALKALKALKALGKALKAL-NH2 [kiadin-6], in data set [3], the “E. coli MIC” value was 1 to 2 mM and the “E. coli MBC” value was 2 to 4 mM. Further, in data set [4], the “S. aureus MIC” value is 4 mM and the “S. aureus MBC” value is reported as 4 mM.
H-KIGKALGKALKALGKALGKA-NH2 [kiadin-4]: in data set [3], the “E. coli MIC” value is 8 mM and the “E. coli MBC” value is given as 16 mM. Further, in data set [4], the “S. aureus MIC” value was 16 to 32 mM and the “S. aureus MBC” value is 32 mM.
As to “KIAGKAGKIAKIAGKAGKIA-NH2 [kiadin-5, ab initio designed 20-residue amidated peptide with quadruple Gly substitution]”, the “Haemolytic activity (in words)” value in data set [2] (0.5% human erythrocytes, up to highest tested concentration) is given as “not to be haemolytic up to the highest tested concentration”. Besides, in data set [3], the “E. coli MIC” value was more than 64 mM and the “E. coli MBC” value is on record as more than 64 mM. In data set [4], the “S. aureus MIC” value is on record as more than 64 mM and the “S. aureus MBC” value is given as more than 64 mM.
As for KIAKGALKALKIAKVALKAL-NH2 [kiadin-2], the “Cytotoxicity MEC-1 (qualitative score)” value in data set [1] was “++”. In addition, in data set [3], the “E. coli MIC” value was 0.25 to 0.5 mM and the “E. coli MBC” value was 0.5 to 1 mM. For the same substance, the “Cytotoxicity RBC (qualitative score)” value in data set [5] is reported as “++”. Moreover, in data set [4], the “S. aureus MIC” value is 8 to 16 mM and the “S. aureus MBC” value is 8 to 16 mM.
Turning to KIAKVALKALKIAKVALKAL-NH2 [diPGLa-H], the “IC50 MEC-1 cells” value in data set [1] (MTT, 24 h) was 9 ± 3 µM. Moreover, the Kd in data set [6] is approximately 5 µM. Also, in data set [2], the “HC50 (haemolytic activity, text)” value is reported as “about 22 μM”. In data set [3], the “E. coli MIC” value is 1.5 mM and the “E. coli MBC” value is reported as 1.5 mM. Besides, in data set [4], the “S. aureus MIC” value is on record as 0.75 mM and the “S. aureus MBC” value was 1.5 mM.
